Results taken from patent US8518976B2, “Heteroaryl-substituted amides comprising a saturated linker group, and their use as pharmaceuticals” (Sanofi, priority 2005, dated 2013).

What follows are compounds tested on eNOS promoter (assay: Activation of eNOS transcription (eNOS promoter-luciferase reporter gene assay)). Conditions: human endothelial cell line stably transfected with eNOS promoter-luciferase construct, 18 h incubation, determined graphically; read-out: EC50 values of transcription induction ratios (TIR).
Assay type: cell-based
Description: Activation of eNOS transcription was measured as described in detail by L^1 et al., “Activation of protein kinase C alpha and/or epsilon enhances transcription of the human endothelial nitric oxide synthase gene”, Mol. Pharmacol. 53 (1998) 630. Briefly, a 3.5 kB long fragment 5′ of the starting codon of the eNOS gene was cloned, sequenced and cloned in firefly luciferase expression plasmids to monitor activation of the eNOS promoter by reporter gene activity. A human endothelial cell line stable transfected and expressing this promoter-reporter construct was used for compound testing. Cells were incubated for 18 h with the compounds.
All compounds were dissolved in sterile dimethyl sulfoxide (DMSO). A final concentration of 0.5% DMSO in complete medium was allowed. Induction of reporter gene expression in these cells was measured using a standard luciferase assay system (Promega, Cat. No. E150) according to the manufacturer's instructions. Luciferase induction in cells incubated with compounds were compared to those incubated with solvent alone. The ratio of both activities (transcription induction ratio, TIR) was plotted as a function of compound concentration. Typically, TIR values started at low concentrations at a ratio of 1, indicating no compound effect, and extended up to a maximum TIR value TIR(max) which indicates the increase of the eNOS transcription. EC50 values of transcription induction ratios as a function of compound concentration were determined graphically.
For `O=C1CSC=CN1CCCc1ccc(-c2ccc(F)cc2)nc1` [Example 25, 4-(3-(6-(4-Fluorophenyl)pyridin-3-yl)propyl)-4H-[1,4]thiazin-3-one], the EC50 was < 500 nM. `O=C1CCC(=O)N1CCOc1ccc(-c2ccc(F)c(Cl)c2)nc1` [Example 50, 1-(2-(6-(3-Chloro-4-fluorophenyl)pyridin-3-yloxy)ethyl)pyrrolidine-2,5-dione] was tested, and the EC50 was < 500 nM. `O=C1CCC(=O)N1CCOc1ccc(-c2cccc3ccccc23)nc1` [Example 66, 1-(2-(6-(naphthalen-1-yl)pyridin-3-yloxy)ethyl)pyrrolidine-2,5-dione] gave an EC50 of 500 to 5000 nM. For `Cc1cc(-c2ccc(OCCN3C(=O)CCC3=O)cn2)ccc1F` [Example 86, 1-(2-(6-(4-fluoro-3-methylphenyl)pyridin-3-yloxy)ethyl)pyrrolidine-2,5-dione], the EC50 was < 500 nM. `O=C(O)CCCC(=O)NCCCc1ccc(-c2ccc(F)cc2)nc1` [Example 17, 4-(3-(6-(4-Fluorophenyl)pyridin-3-yl)propylcarbamoyl)butyric acid] showed an EC50 of 500 to 5000 nM. `N#Cc1cccc(-c2ccc(OCCN3C(=O)CCC3=O)cn2)c1` [Example 64, 1-(2-(6-(3-cyanophenyl)pyridin-3-yloxy)ethyl)pyrrolidine-2,5-dione] was tested, and the EC50 was 500 to 5000 nM. With `Cc1csc(-c2ccc(OCCN3C(=O)CCC3=O)cn2)c1` [Example 52, 1-(2-(6-(4-methylthiophen-2-yl)pyridin-3-yloxy)ethyl)pyrrolidine-2,5-dione] the EC50 was < 500 nM. `O=C1CCC(=O)N1CCNc1nc(-c2ccc(F)cc2)cs1` [Example 34, 1-(2-(4-(4-Fluorophenyl)thiazol-2-ylamino)ethyl)pyrrolidine-2,5-dione] gave an EC50 of 500 to 5000 nM. For `O=C1CCCCCN1CCCc1ccc(-c2ccc(F)cc2)nc1` [Example 18, 1-(3-(6-(4-Fluorophenyl)pyridin-3-yl)propyl)azepan-2-one], the EC50 was < 500 nM. `O=C1CSCCN1CCCc1ccc(-c2ccccc2Cl)nc1` [Example 7, 4-(3-(6-(2-Chlorophenyl)pyridin-3-yl)propyl)thiomorpholin-3-one] gave an EC50 of 500 to 5000 nM.
